This is an account of results in patent EP0466251A1, “Elfamycin-resistant mutants” (priority 1990, dated 1992).

Experiment [1] concerns the target T1, wild-type S. ramocissimus EF-Tu (Streptomyces ramocissimus, UniProt P29542).
T1 construct: made in house; host or cells: E. coli JM101 (pUSrT1-1)
Briefly: elfamycin binding visualized by non-denaturing PAGE. As to conditions: 25 µM aurodox, 15 minutes at 37°C; Western blotting detection. The method, then:
(§1) Susceptibility of the isolated EF-Tu to elfamycin is tested in elfamycin binding studies (G. Chinali et al., Eur. J. Biochem. 75 (1977) 55-65,) and in studies on the inhibition of EF-Tu dependent peptide synthesis (C. Glöckner and H. Wolf, cited above). Still another direct elfamycin binding assay has been developed in which the capacity of the EF-Tu protein to bind elfamycins can be visualized by a change in EF-Tu protein migration in the presence of the elfamycin by non-denaturing PAGE (polyacrylamide gel electrophoresis). Upon elfamycin binding to EF-Tu.GDP, a ternary complex is formed which is more negatively charged than the binary EF-Tu.GDP complex (B. Kraal et al, 1989, in The Guanine-Nucleotide Binding Proteins, pp 121-129, Plenum Press, New York). Consequently elfamycin binding, using e.g. aurodox, to Escherichia coli wild-type EF-Tu increases the migration distance into a non-denaturing polyacrylamide gel. Both the methods of peptide synthesis inhibition and visualization of elfamycin binding are the preferred techniques to determine the effect of elfamycin binding on EF-Tu functioning. These susceptibility assays are important if increased elfamycin resistance of EF-Tu has to be established.
For direct visualization of the elfamycin binding capacity, the mutant proteins were expressed in E. coli JM101 essentially as described in Example 3. […]

The target in experiment [2] is T2, SrEF-Tu A378F (Streptomyces ramocissimus, UniProt P29542, A379F).
T2 construct: made in house; host or cells: E. coli JM101
T2 sequence (P29542 whole entry A379F): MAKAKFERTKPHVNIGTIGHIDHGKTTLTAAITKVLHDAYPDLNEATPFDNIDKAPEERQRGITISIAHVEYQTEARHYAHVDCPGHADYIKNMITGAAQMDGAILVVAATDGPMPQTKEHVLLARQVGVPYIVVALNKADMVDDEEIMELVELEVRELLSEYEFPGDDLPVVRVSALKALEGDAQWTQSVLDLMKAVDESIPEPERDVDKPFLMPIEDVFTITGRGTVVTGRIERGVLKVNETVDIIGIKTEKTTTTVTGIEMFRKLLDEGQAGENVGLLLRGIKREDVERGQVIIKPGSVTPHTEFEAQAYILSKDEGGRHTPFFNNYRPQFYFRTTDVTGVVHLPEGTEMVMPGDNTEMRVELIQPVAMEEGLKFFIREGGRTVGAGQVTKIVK
The description is as above. Further details: species or system S. ramocissimus. As to conditions: 25 µM aurodox, 15 minutes at 37°C; Western blotting detection. The method, then:
as §1
(§2) For direct visualization of the elfamycin binding capacity, the mutant proteins were expressed in E. coli JM101 essentially as described in Example 3. Subsequently, a GDP stabilized S-30, S-100, or purified SrEF-Tu sample was prepared, and incubated with 25 µM aurodox for 15 minutes at 37°C. These samples, and control samples without aurodox were then subjected to non-denaturing 10% polyacrylamide gels and electrophoresed. Detection of the SrEF-Tu species was performed by the Western blotting technique using SrEF-Tu antibodies (Example 1). […] This experiment thus established that elfamycin resistance is most likely the effect of a reduced binding of the elfamycin to the mutant SrEF-Tu proteins.

The target in experiment [3] is T3, SrEF-Tu A378P (Streptomyces ramocissimus, UniProt P29542, A379P).
T3 construct: made in house; host or cells: E. coli JM101
T3 sequence (P29542 whole entry A379P): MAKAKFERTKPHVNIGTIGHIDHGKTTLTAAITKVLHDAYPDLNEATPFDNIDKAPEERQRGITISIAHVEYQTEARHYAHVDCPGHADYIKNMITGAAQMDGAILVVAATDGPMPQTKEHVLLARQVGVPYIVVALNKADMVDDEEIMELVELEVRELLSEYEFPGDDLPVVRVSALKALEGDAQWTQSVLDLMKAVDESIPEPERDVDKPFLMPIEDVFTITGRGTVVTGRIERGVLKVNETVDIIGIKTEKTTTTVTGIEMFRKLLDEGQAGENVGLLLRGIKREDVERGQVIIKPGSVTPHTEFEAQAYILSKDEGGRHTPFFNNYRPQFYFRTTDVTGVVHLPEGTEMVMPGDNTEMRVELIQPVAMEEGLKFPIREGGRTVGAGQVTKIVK
The experiment is described as above. On the set-up: species or system S. ramocissimus. As to conditions: 25 µM aurodox, 15 minutes at 37°C; Western blotting detection. As for the experimental part: as §1, §2

Experiment [4] concerns the target T4, SrEF-Tu A378T (Streptomyces ramocissimus, UniProt P29542, A379T).
T4 construct: made in house; host or cells: E. coli JM101
Described as above. As to conditions: 25 µM aurodox, 15 minutes at 37°C; Western blotting detection. Further details: species or system S. ramocissimus. As for the experimental part: as §1, §2

The target in experiment [5] is T5, SrEF-Tu A378V (Streptomyces ramocissimus, UniProt P29542, A379V).
T5 construct: made in house; host or cells: E. coli JM101
T5 sequence (P29542 whole entry A379V): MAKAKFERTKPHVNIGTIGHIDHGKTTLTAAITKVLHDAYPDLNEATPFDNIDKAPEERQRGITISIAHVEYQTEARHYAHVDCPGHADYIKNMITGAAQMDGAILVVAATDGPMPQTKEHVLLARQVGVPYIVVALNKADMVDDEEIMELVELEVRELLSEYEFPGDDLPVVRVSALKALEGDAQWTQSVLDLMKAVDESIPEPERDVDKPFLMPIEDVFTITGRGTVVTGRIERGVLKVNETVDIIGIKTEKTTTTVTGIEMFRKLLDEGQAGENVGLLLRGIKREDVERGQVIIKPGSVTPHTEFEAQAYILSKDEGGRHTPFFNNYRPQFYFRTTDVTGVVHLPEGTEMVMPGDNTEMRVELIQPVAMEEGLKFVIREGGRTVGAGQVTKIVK
The description is as above. On the set-up: species or system S. ramocissimus. As to conditions: 25 µM aurodox, 15 minutes at 37°C; Western blotting detection. The method, then:
as §1, §2

For experiment [6], the target named is T6, major EF-Tu species of S. ramocissimus strain R1V (Streptomyces ramocissimus, UniProt P29542, A379V).
T6 construct: an S-100 extract was prepared from a culture of S. ramocissimus strain R1V; endogenous in cells; host or cells: S. ramocissimus strain R1V (chromosomal tuf1 replaced by the A378V allele)
T6 sequence (P29542 whole entry A379V): as above
Briefly: direct elfamycin binding assay on S-100 extract. As to conditions: S-100 extract of strain R1V; 25 µM Aurodox. As for the experimental part: as §2
To establish that S. ramocissimus strain R1V actually expresses the mutated Srtuf1 gene as the main EF-Tu species, an S-100 extract was prepared from a culture of S. ramocissimus strain R1V essentially as described in Example 1. Subsequently this extract was subjected to the direct elfamycin binding assay outlined in Example 6.

SMILES strings stand for the structures.

T4 sequence (P29542 whole entry A379T): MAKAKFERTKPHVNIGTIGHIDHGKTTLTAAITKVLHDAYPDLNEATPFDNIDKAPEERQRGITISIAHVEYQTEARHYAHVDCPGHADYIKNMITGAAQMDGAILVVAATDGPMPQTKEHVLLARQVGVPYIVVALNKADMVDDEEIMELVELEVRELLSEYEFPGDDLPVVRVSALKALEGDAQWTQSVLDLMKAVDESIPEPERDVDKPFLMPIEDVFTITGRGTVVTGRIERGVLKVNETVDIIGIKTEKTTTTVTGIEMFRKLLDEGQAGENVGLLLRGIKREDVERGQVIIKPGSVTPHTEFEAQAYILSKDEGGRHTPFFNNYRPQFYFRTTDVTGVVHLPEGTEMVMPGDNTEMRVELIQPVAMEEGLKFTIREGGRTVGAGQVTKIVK
T1 sequence (P29542 whole entry): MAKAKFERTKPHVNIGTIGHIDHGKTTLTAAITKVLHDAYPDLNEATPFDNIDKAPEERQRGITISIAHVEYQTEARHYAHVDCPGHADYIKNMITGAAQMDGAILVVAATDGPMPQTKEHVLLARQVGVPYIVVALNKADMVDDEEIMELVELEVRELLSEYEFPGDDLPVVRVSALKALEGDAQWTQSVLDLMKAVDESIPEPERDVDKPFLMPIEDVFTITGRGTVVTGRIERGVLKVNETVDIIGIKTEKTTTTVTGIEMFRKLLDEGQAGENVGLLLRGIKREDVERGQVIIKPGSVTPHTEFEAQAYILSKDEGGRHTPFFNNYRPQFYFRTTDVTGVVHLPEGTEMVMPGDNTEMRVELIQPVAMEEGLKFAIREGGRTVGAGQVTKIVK

For the compound `C/C=C\C=C\[C@@H]1O[C@](O)([C@H](CC)C(=O)NC/C=C/C=C(\C)[C@@H](OC)[C@@H](C)[C@@H]2O[C@H](/C=C/C=C/C=C(\C)C(=O)c3c(O)ccn(C)c3=O)[C@H](O)[C@@H]2O)[C@H](O)[C@H](O)C1(C)C` [aurodox, N-Methylmocimycin], the “elfamycin binding (migration in non-denaturing PAGE)” value in experiment [1] is “appears to bind”; in experiment [2], “unaffected”; in experiment [3] it was “unaffected”; in experiment [4], “unaffected”; in experiment [5] it was “unaffected”; in experiment [6], “unable to bind”.
